Values joined by “and” are separate entries in the source; they are usually repeats but may differ in a detail not shown here. Identical values can stand only once.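 Interpolation was linear, between the two tested concentrations surrounding the appropriate level; five concentrations were tested over 48 hours in 96-well plates. GI50 marks 50% less growth. Definition used: TGI = concentration required for complete inhibition of growth.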

Assay in all cases: NCI anticancer screen, dose series, 48 h
The test system of assay [1] is A549 NSCLC.
The test system of assay [2] is BT-549 breast.
Assay [3] concerns CCRF-CEM leukemia.
For assay [4], the system named is DU-145 prostate.
Assay [5] deals with HL-60(TB) leukemia.
For assay [6], the system named is K-562 leukemia.
For assay [7], the system named is KM12 colon.
The subject of assay [8] is NCI-H23 lung.
The subject of assay [9] is SK-MEL-28 melanoma.
In assay [10] the test system is SR leukemia.

In the case of `Cc1ccc(OP(=O)(Oc2ccc(C)cc2)N2C=Cc3ccccc3C2C#N)cc1` (stereo not given), the TGI in assay [1], in assay [2], in assay [3], in assay [4], in assay [5] and in assay [6] was greater than 100 µM throughout. For the same compound, the TGI in assay [7], in assay [8], in assay [9] and in assay [10] was greater than 100 µM throughout.

On to `COc1nc(N)nc2c1ncn2C1CC(O)C(CO)O1` (stereo not given), for which the TGI in assay [1], in assay [2], in assay [3], in assay [4], in assay [5] and in [6] was greater than 100 µM each time. Besides, the TGI in assay [7], in assay [8], in assay [9] and in [10] was greater than 100 µM each time.

For the compound `CCOC(=O)C(=Cc1ccc(C#N)cc1)C(=O)OCC`, the GI50 in [1] is 4.11 µM; in assay [2] it was 2.06 µM; in assay [3] it was 3 µM; in [4], 3.04 µM; in [5], 1.88 µM; in [6], 3.44 µM. For the same compound, the GI50 is 2.86 µM in assay [7], 2.15 µM in assay [8], 2.35 µM in assay [9] and 1.31 µM in [10]. In addition, the TGI in [1] was 14.5 µM; in assay [2] it was 4.9 µM; in assay [3], 9.32 µM; in assay [4], 10.3 µM; in assay [5], 5.48 µM; in assay [6] it was greater than 100 µM. The TGI in [7] is 8.8 µM; in assay [8], 5.53 µM; in assay [9], 6.56 µM; in [10], greater than 100 µM.

Turning to `NC(=S)N/N=C/c1ccc(OC(=O)COc2cc(Cl)c(Cl)cc2Cl)cn1`, the GI50 is 24.4 µM in assay [1]; 3.92 µM in assay [2]; 2.8 µM in [3]; 3.52 µM in assay [4]; 3.97 µM in assay [5]; 5.56 µM in assay [6]. Moreover, the GI50 was 5.68 µM in assay [7], 3.26 µM in assay [8], 13.1 µM in assay [9] and 4.7 µM in assay [10]. The TGI is greater than 100 µM in assay [1]; greater than 100 µM in assay [2]; greater than 100 µM in [3]; 27.3 µM in assay [4]; 47.9 µM in [5]; greater than 100 µM in [6]. Besides, the TGI in assay [7], in [8], in assay [9] and in [10] was greater than 100 µM throughout.

For `Cn1ncc(Cl)c1-c1cc(C(=O)N[C@H](CN)Cc2cccc(F)c2)sc1Cl`, the GI50 was 0.946 µM and 2.32 µM in assay [1]; 0.518 µM and 1.33 µM in assay [2]; 0.349 µM and 0.294 µM in assay [3]; 2.28 µM and 5.86 µM in assay [4]; > 3.71 µM and 2.48 µM in [5]; 1.33 µM and 2.24 µM in assay [6]. The GI50 was 0.467 µM and 0.835 µM in assay [7]; 2.45 µM and 8.12 µM in [8]; 1.43 µM and 1.7 µM in assay [9]; 0.749 µM and 1.54 µM in [10]. For the same compound, the TGI in [1] was > 10 µM and 16 µM; in [2] it was 3.35 µM and 7.5 µM; in assay [3], > 10 µM and 10.5 µM; in assay [4], > 10 µM and 19.4 µM; in [5] it was > 6.27 µM and 8.32 µM; in [6], 5.16 µM and 6.74 µM. In addition, the TGI is 3.51 µM and 8.31 µM in [7]; > 8.23 µM and 22 µM in assay [8]; 4.85 µM and 9.04 µM in assay [9]; 3.11 µM and 4.74 µM in assay [10].

Take `Cc1c(Cn2c(C)nc3c(C(=O)O)cc(N4CCOCC4)cc32)cccc1C(F)(F)F`: the GI50 in [1] was 54.3 µM; in assay [2], 25.8 µM; in [3], 44.3 µM; in assay [4], greater than 92.9 µM; in assay [5], 72.9 µM; in [6], greater than 77.2 µM. In addition, the GI50 in assay [7] was 56.7 µM; in assay [8], 81.5 µM; in assay [9], greater than 100 µM; in assay [10], 51.3 µM. Further, the TGI in assay [1], in assay [2], in assay [3], in assay [4], in assay [5] and in [6] was greater than 100 µM in each case. Besides, the TGI in assay [7], in assay [8], in [9] and in assay [10] was greater than 100 µM each time.

As for `CCC1=C(c2ccc(OC)cc2)C(C)(C)Oc2c1ccc(O)c2CN1CCCC1`, the GI50 in assay [1] is 3.63 µM; in [2] it was 2.29 µM; in assay [3] it was 1.86 µM; in assay [4], 3.77 µM; in assay [5], 0.871 µM; in assay [6], 0.759 µM. Further, the GI50 is 1.91 µM in assay [7], 3.02 µM in [8], 1.7 µM in assay [9] and 0.927 µM in [10]. Besides, the TGI in [1] was 26.8 µM; in [2], 12.7 µM; in assay [3] it was 5.38 µM; in assay [4], greater than 100 µM; in assay [5], 3.12 µM; in assay [6], 3.1 µM. The TGI in assay [7] stood at 3.9 µM; in assay [8] it was 21.6 µM; in assay [9], 3.32 µM; in [10], 3.63 µM.

As for `COc1cc(-n2ccnc2-c2ccc3ccccc3c2)cc(OC)c1OC`, the GI50 is 0.12 µM in [1]; 0.246 µM in assay [2]; 0.136 µM in assay [3]; 0.175 µM in assay [4]; 0.0232 µM in [5]; less than 0.0191 µM in [6]. The GI50 is less than 0.0198 µM in [7], 0.223 µM in assay [8], 0.688 µM in [9] and less than 0.0188 µM in assay [10]. The TGI was greater than 45.4 µM in assay [1]; 14.9 µM in assay [2]; greater than 100 µM in assay [3]; 17.5 µM in assay [4]; greater than 37.6 µM in assay [5]; greater than 100 µM in assay [6]. In addition, the TGI in [7] is 18.9 µM; in assay [8], 13.4 µM; in [9] it was 38.3 µM; in assay [10] it was greater than 43.4 µM.

These data come from PubChem BioAssay (NCI).
